Experimental data taken from patent US10238667B2, “Vitamin D receptor/SMAD genomic circuit gates fibrotic response” (Salk Institute for Biological Studies, priority 2013, dated 2019).

Tested on: primary rat HSCs
Assay: Microarray expression profiling of TGFβ1 and TGFβ1+1,25(OH)2D3-treated HSCs
Format: cell-based
From the text: VDR Signaling Suppresses TGFβ-induced Pro-Fibrotic Genes. […] Euclidean clustering of both rows and columns using log2 transformed microarray expression data, n=2 per treatment group. […] Data represents the mean±SEM of at least three independent experiments performed in triplicate. Asterisks denote statistically significant differences (Student's unpaired t-test, *p<0.05, **p<0.01). HSCs were isolated from 10-week old male C57BL/6J mice and Wistar rats by in situ pronase, collagenase perfusion and single-step Histogenz gradient as previously reported (Hendriks et al., 1985; Knook et al., 1982). Isolated HSCs were cultured in DMEM (Mediatech) containing 20% FBS (Hyclone) on 6-well plates for 40 hours prior to end-point assays. Total RNA from primary rat or mouse HSCs was isolated using the RNeasy mini kit (Qiagen) according to standard protocols. RNA integrity and quality was assessed using the Agilent Bioanalyzer and prepared for hybridization to Illumina rat or mouse gene expression arrays according to standard Illumina protocols. Feature extraction was performed using the Illumina GenomeStudio software. Normalization and identification of differentially expressed genes from biological duplicates was performed using […] at http://sasquatch.ucsd.edu/vampire/.

C=C1/C(=C\C=C2/CCC[C@]3(C)C([C@H](C)CCCC(C)(C)O)CC[C@@H]23)C[C@@H](O)C[C@@H]1O (stereo partly drawn) [1,25(OH)2D3, 1α,25 dihydroxyvitamin D3]
TGFβ1 induced genes (1,25(OH)2D3 co-treatment with TGFβ1): considerable repression | Mmp13 VitD + TGF β Avg Signal (TGFβ1 1 ng/ml + 1,25(OH)2D3 100 nM, 24 h, Control 150.8, TGFβ 202.4): 180.0 | Col4a2 VitD + TGF β Avg Signal (TGFβ1 1 ng/ml + 1,25(OH)2D3 100 nM, 24 h, Control 162.6, TGFβ 225.3): 166.2 | Itga7 VitD + TGF β Avg Signal (TGFβ1 1 ng/ml + 1,25(OH)2D3 100 nM, 24 h, Control 170.2, TGFβ 202.7): 161.9 | Col16a1 VitD + TGF β Avg Signal (TGFβ1 1 ng/ml + 1,25(OH)2D3 100 nM, 24 h, Control 175.4, TGFβ 237.2): 173.3 | Col7a1 VitD + TGF β Avg Signal (TGFβ1 1 ng/ml + 1,25(OH)2D3 100 nM, 24 h, Control 185.8, TGFβ 229.6): 190.3 | Itga2 VitD + TGF β Avg Signal (TGFβ1 1 ng/ml + 1,25(OH)2D3 100 nM, 24 h, Control 188.5, TGFβ 257.9): 204.2 | LOC366205 VitD + TGFbeta AVG signal (TGFβ1 1 ng/ml + 1,25(OH)2D3 100 nM, 24 h, Control 193.2, TGFβ 926.6): 140.7 | Tgfb3 VitD + TGF β Avg Signal (TGFβ1 1 ng/ml + 1,25(OH)2D3 100 nM, 24 h, Control 226.4, TGFβ 288.5): 178.6 | LOC499272 VitD + TGFbeta AVG signal (TGFβ1 1 ng/ml + 1,25(OH)2D3 100 nM, 24 h, Control 234.2, TGFβ 620): 140.2 | LOC497796 VitD + TGFbeta AVG signal (TGFβ1 1 ng/ml + 1,25(OH)2D3 100 nM, 24 h, Control 240.8, TGFβ 4341): 859 | Col15a1 VitD + TGF β Avg Signal (TGFβ1 1 ng/ml + 1,25(OH)2D3 100 nM, 24 h, Control 257.9, TGFβ 616.4): 396.9 | Ly49si1 VitD + TGFbeta AVG signal (TGFβ1 1 ng/ml + 1,25(OH)2D3 100 nM, 24 h, Control 261.1, TGFβ 622.8): 134.7 | Tgfbr1 VitD + TGF β Avg Signal (TGFβ1 1 ng/ml + 1,25(OH)2D3 100 nM, 24 h, Control 277.1, TGFβ 365.1): 331.9 | Mmp7 VitD + TGF β Avg Signal (TGFβ1 1 ng/ml + 1,25(OH)2D3 100 nM, 24 h, Control 277.3, TGFβ 469.3): 164.9 | LOC499100 VitD + TGFbeta AVG signal (TGFβ1 1 ng/ml + 1,25(OH)2D3 100 nM, 24 h, Control 281.2, TGFβ 594.6): 154.4 | LOC305269 VitD + TGFbeta AVG signal (TGFβ1 1 ng/ml + 1,25(OH)2D3 100 nM, 24 h, Control 288.8, TGFβ 687.8): 170.6 | Tgfbr2 VitD + TGF β Avg Signal (TGFβ1 1 ng/ml + 1,25(OH)2D3 100 nM, 24 h, Control 289.0, TGFβ 347.6): 358.9 | Stab1_predict VitD + TGFbeta AVG signal (TGFβ1 1 ng/ml + 1,25(OH)2D3 100 nM, 24 h, Control 303.7, TGFβ 1141.2): 204.7 | Mmp19 VitD + TGF β Avg Signal (TGFβ1 1 ng/ml + 1,25(OH)2D3 100 nM, 24 h, Control 319.6, TGFβ 516.3): 308.7 | Cdh1 VitD + TGFbeta AVG signal (TGFβ1 1 ng/ml + 1,25(OH)2D3 100 nM, 24 h, Control 337.9, TGFβ 553.9): 126.8 | Dcir2 VitD + TGFbeta AVG signal (TGFβ1 1 ng/ml + 1,25(OH)2D3 100 nM, 24 h, Control 426.1, TGFβ 842.9): 184.9 | Cysltr1 VitD + TGFbeta AVG signal (TGFβ1 1 ng/ml + 1,25(OH)2D3 100 nM, 24 h, Control 429.3, TGFβ 801.8): 183.5 | LOC501570 VitD + TGFbeta AVG signal (TGFβ1 1 ng/ml + 1,25(OH)2D3 100 nM, 24 h, Control 429.6, TGFβ 887.6): 192.5 | Tmem26_pred VitD + TGFbeta AVG signal (TGFβ1 1 ng/ml + 1,25(OH)2D3 100 nM, 24 h, Control 457.8, TGFβ 912.3): 237.3 | Pirb VitD + TGFbeta AVG signal (TGFβ1 1 ng/ml + 1,25(OH)2D3 100 nM, 24 h, Control 462.9, TGFβ 913.7): 171.1 | LOC366608 VitD + TGFbeta AVG signal (TGFβ1 1 ng/ml + 1,25(OH)2D3 100 nM, 24 h, Control 469.9, TGFβ 892.8): 203.6 | Col1a1 VitD + TGF β Avg Signal (TGFβ1 1 ng/ml + 1,25(OH)2D3 100 nM, 24 h, Control 474.2, TGFβ 1429.1): 557.9 | Loxl2 VitD + TGF β Avg Signal (TGFβ1 1 ng/ml + 1,25(OH)2D3 100 nM, 24 h, Control 495.5, TGFβ 966.5): 597.0 | Timp2 VitD + TGF β Avg Signal (TGFβ1 1 ng/ml + 1,25(OH)2D3 100 nM, 24 h, Control 500.7, TGFβ 913.0): 751.7 | Col3a1 VitD + TGF β Avg Signal (TGFβ1 1 ng/ml + 1,25(OH)2D3 100 nM, 24 h, Control 513.9, TGFβ 965.1): 287.6 | Col6a3 VitD + TGF β Avg Signal (TGFβ1 1 ng/ml + 1,25(OH)2D3 100 nM, 24 h, Control 526.5, TGFβ 848.2): 442.6 | Loxl1 VitD + TGF β Avg Signal (TGFβ1 1 ng/ml + 1,25(OH)2D3 100 nM, 24 h, Control 537.2, TGFβ 1045.1): 560.1 | Ly49si2 VitD + TGFbeta AVG signal (TGFβ1 1 ng/ml + 1,25(OH)2D3 100 nM, 24 h, Control 538.9, TGFβ 1177): 256 | LOC361699 VitD + TGFbeta AVG signal (TGFβ1 1 ng/ml + 1,25(OH)2D3 100 nM, 24 h, Control 557.1, TGFβ 1013.7): 263.7 | Mmp10 VitD + TGF β Avg Signal (TGFβ1 1 ng/ml + 1,25(OH)2D3 100 nM, 24 h, Control 561.7, TGFβ 1042.3): 764.6 | Col8a1 VitD + TGF β Avg Signal (TGFβ1 1 ng/ml + 1,25(OH)2D3 100 nM, 24 h, Control 574.2, TGFβ 1285.9): 773.5 | Ccl12_predicte VitD + TGFbeta AVG signal (TGFβ1 1 ng/ml + 1,25(OH)2D3 100 nM, 24 h, Control 597, TGFβ 1047.9): 191.1 | Col5a1 VitD + TGF β Avg Signal (TGFβ1 1 ng/ml + 1,25(OH)2D3 100 nM, 24 h, Control 611.1, TGFβ 1418.9): 673.0 | LOC304349 VitD + TGFbeta AVG signal (TGFβ1 1 ng/ml + 1,25(OH)2D3 100 nM, 24 h, Control 664, TGFβ 1503.8): 211.1 | Tgfb2 VitD + TGF β Avg Signal (TGFβ1 1 ng/ml + 1,25(OH)2D3 100 nM, 24 h, Control 814.7, TGFβ 1308.4): 388.0 | LOC498751 VitD + TGFbeta AVG signal (TGFβ1 1 ng/ml + 1,25(OH)2D3 100 nM, 24 h, Control 827.8, TGFβ 2611.8): 516.6 | Emr1 VitD + TGFbeta AVG signal (TGFβ1 1 ng/ml + 1,25(OH)2D3 100 nM, 24 h, Control 831.7, TGFβ 1893.5): 319.1 | LOC502904 VitD + TGFbeta AVG signal (TGFβ1 1 ng/ml + 1,25(OH)2D3 100 nM, 24 h, Control 858.7, TGFβ 1425.7): 213.6 | Itga5 VitD + TGF β Avg Signal (TGFβ1 1 ng/ml + 1,25(OH)2D3 100 nM, 24 h, Control 880.0, TGFβ 1227.3): 1158.1 | Cacnb3 VitD + TGFbeta AVG signal (TGFβ1 1 ng/ml + 1,25(OH)2D3 100 nM, 24 h, Control 906.9, TGFβ 2511.6): 415.9 | Bmp2 VitD + TGFbeta AVG signal (TGFβ1 1 ng/ml + 1,25(OH)2D3 100 nM, 24 h, Control 954.6, TGFβ 1628.6, listed as VitD): 305 | Gas7 VitD + TGFbeta AVG signal (TGFβ1 1 ng/ml + 1,25(OH)2D3 100 nM, 24 h, Control 1039.2, TGFβ 4083.5): 832.8 | Slamf9_predic VitD + TGFbeta AVG signal (TGFβ1 1 ng/ml + 1,25(OH)2D3 100 nM, 24 h, Control 1044.7, TGFβ 1762.9): 417.9 | Itga4 VitD + TGF β Avg Signal (TGFβ1 1 ng/ml + 1,25(OH)2D3 100 nM, 24 h, Control 1128.4, TGFβ 1464.4): 380.6 | LOC498741 VitD + TGFbeta AVG signal (TGFβ1 1 ng/ml + 1,25(OH)2D3 100 nM, 24 h, Control 1156.2, TGFβ 1908.8): 314.1 | Hod VitD + TGFbeta AVG signal (TGFβ1 1 ng/ml + 1,25(OH)2D3 100 nM, 24 h, Control 1297, TGFβ 2520.2): 495.9 | LOC502907 VitD + TGFbeta AVG signal (TGFβ1 1 ng/ml + 1,25(OH)2D3 100 nM, 24 h, Control 1399.7, TGFβ 2318.7): 241.9 | Ptprc VitD + TGFbeta AVG signal (TGFβ1 1 ng/ml + 1,25(OH)2D3 100 nM, 24 h, Control 1582.3, TGFβ 2387): 569.1 | Itgam VitD + TGF β Avg Signal (TGFβ1 1 ng/ml + 1,25(OH)2D3 100 nM, 24 h, Control 1689.7, TGFβ 2297.0): 658.0 | Col4a1 VitD + TGF β Avg Signal (TGFβ1 1 ng/ml + 1,25(OH)2D3 100 nM, 24 h, Control 1708.1, TGFβ 2261.0): 1315.2 | Chst1_predict VitD + TGFbeta AVG signal (TGFβ1 1 ng/ml + 1,25(OH)2D3 100 nM, 24 h, Control 1813.1, TGFβ 4284.5): 337.6 | Dsipi VitD + TGFbeta AVG signal (TGFβ1 1 ng/ml + 1,25(OH)2D3 100 nM, 24 h, Control 1943.2, TGFβ 4575.5): 1152 | Ccr5 VitD + TGFbeta AVG signal (TGFβ1 1 ng/ml + 1,25(OH)2D3 100 nM, 24 h, Control 2069.5, TGFβ 4680.9): 362.3 | Itgav VitD + TGF β Avg Signal (TGFβ1 1 ng/ml + 1,25(OH)2D3 100 nM, 24 h, Control 2145.1, TGFβ 4760.5): 2417.2 | Mmp9 VitD + TGF β Avg Signal (TGFβ1 1 ng/ml + 1,25(OH)2D3 100 nM, 24 h, Control 2153.3, TGFβ 4197.3): 2676.4 | Col5a2 VitD + TGF β Avg Signal (TGFβ1 1 ng/ml + 1,25(OH)2D3 100 nM, 24 h, Control 2181.0, TGFβ 3452.2): 1696.8 | Lox VitD + TGF β Avg Signal (TGFβ1 1 ng/ml + 1,25(OH)2D3 100 nM, 24 h, Control 2260.8, TGFβ 7481.1): 4219.9 | LOC499356 VitD + TGFbeta AVG signal (TGFβ1 1 ng/ml + 1,25(OH)2D3 100 nM, 24 h, Control 2562.8, TGFβ 3888.4): 352.7 | Fchsd2_predic VitD + TGFbeta AVG signal (TGFβ1 1 ng/ml + 1,25(OH)2D3 100 nM, 24 h, Control 2632.5, TGFβ 7594.5): 1565 | Tgfb1 VitD + TGF β Avg Signal (TGFβ1 1 ng/ml + 1,25(OH)2D3 100 nM, 24 h, Control 2922.5, TGFβ 5480.4): 4391.0 | Ms4a4a_predi VitD + TGFbeta AVG signal (TGFβ1 1 ng/ml + 1,25(OH)2D3 100 nM, 24 h, Control 3327, TGFβ 14356): 810.7 | Pcsk1 VitD + TGFbeta AVG signal (TGFβ1 1 ng/ml + 1,25(OH)2D3 100 nM, 24 h, Control 3330.8, TGFβ 6754.6): 912.4 | Ms4a6a_predi VitD + TGFbeta AVG signal (TGFβ1 1 ng/ml + 1,25(OH)2D3 100 nM, 24 h, Control 3823.9, TGFβ 7658.8): 1696
